Measured values reported in patent publication US10517889B2, “Modulators of SMAD7 expression” (Ionis Pharmaceuticals, Inc., priority 2017, dated 2019).

Legend:
[1] = tested on: dog SMAD7 mRNA; assay: Pharmacology: dog SMAD7 mRNA expression in liver, kidney, duodenum, ileum and colon after subcutaneous administration in beagle dogs (Example 8); format: in vivo; conditions: 30 mg/kg subcutaneous, necropsy, normalized to HPRT1
Protocol: (§1) There were 4 animals per group.
The pharmacological activity of the Ionis oligonucleotides in dogs was assessed by measuring dog SMAD7 mRNA expression in liver, kidney, duodenum, ileum, and colon at necropsy. All the human ASOs used are complementary to dog SMAD7 mRNA.
Tissue samples from all dogs were analyzed for SMAD7 mRNA expression using the primer probe set RTS34649 (forward sequence […], designated SEQ ID NO: 2740; reverse sequence […], designated SEQ ID NO: 2741; probe sequence […], designated SEQ ID NO: 2742), which was normalized to mRNA levels of the housekeeping gene, HPRT1. One-way ANOVA with Dunnet's comparison test was used for statistical analysis.

[2] = tested on: human peripheral blood mononuclear cells (PBMCs); assay: Human PBMC activation assay, cytokine levels (IL-10, IL-6, MCP-1, TNF-α) in supernatant after 24 hours (Example 9); conditions: human PBMC supernatant after 24 hours
[3] = Hematology assays after subcutaneous administration in beagle dogs (Example 8); format: in vivo; conditions: 30 mg/kg subcutaneous days 1, 3, 5, 8, 15, 22, 29
Protocol: as §1
Blood samples were collected from the cephalic vein or saphenous vein of each animal. About 0.5 mL of blood samples was put into tubes containing the potassium salt of EDTA. Blood obtained from all dog groups was measured using an ADVIA2120i hematology analyzer for measurements of the various blood cells, as well as other hematology markers.

[4] = Plasma chemistry markers after subcutaneous administration in beagle dogs (Example 8); conditions: 30 mg/kg subcutaneous days 1, 3, 5, 8, 15, 22, 29, plasma at day 31
Protocol: Groups of 24-25 week old male beagle dogs were injected subcutaneously with 30 mg/kg ION Ionis oligonucleotide. There were 4 animals per group. Dogs were injected every two days for the first week (day 1, 3, and 5) and once weekly thereafter (days 8, 15, 22, and 29). A control group of dogs received subcutaneous injections of PBS. Dogs were sacrificed on day 31 approximately 48 hours after the final dose and organs and plasma were harvested for further analysis.
To evaluate the effect of Ionis SMAD7 oligonucleotides on liver and kidney function, plasma levels of transaminases, albumin, creatine and BUN were measured using an automated clinical chemistry analyzer (Toshiba 200FR Neo chemistry analyzer, Toshiba Co., Japan).

[5] = Hematology assays after oral gavage in CD-1 mice (Example 7); format: in vivo; set-up: RBC: unit not given here; conditions: 500 mg/kg oral gavage once daily for 4 weeks
Protocol: (§2) Groups of 7-8 week old male CD-1 mice were given an oral gavage dose once daily for 4 weeks of 500 mg/kg of Ionis SMAD7 oligonucleotides. Each group contained 8 mice. One group of male CD-1 mice was administered saline by oral gavage daily.
Blood obtained from all mouse groups was measured by an ADVIA2120i hematology analyzer (Siemens, USA) for measurements of the various blood cells, as well as other hematology markers. None of the Ionis SMAD7 oligonucleotides caused changes in the levels of any of the hematology markers outside the expected range for antisense oligonucleotides.

[6] = Body and organ weights after oral gavage in CD-1 mice (Example 7); format: in vivo; conditions: 500 mg/kg oral gavage once daily for 4 weeks, end of study
Protocol: as §2
Final body weights were measured at the end of the study. There was no significant difference in the body weight of the mice treated with antisense oligonucleotide compared to the control.
None of the Ionis SMAD7 oligonucleotides caused any changes in organ weights outside the expected range for antisense oligonucleotides.

[7] = Body and organ weights after subcutaneous administration in beagle dogs (Example 8); format: in vivo; conditions: 30 mg/kg subcutaneous days 1, 3, 5, 8, 15, 22, 29, end of study
Protocol: as §1
Body weights as well as kidney, spleen, liver (with gall bladder), mesenteric lymph node, heart, and thymus weights were measured at the end of the study. […] Ionis SMAD7 oligonucleotides that caused any changes in organ weights outside the expected range for antisense oligonucleotides were excluded from further studies.

What does the source list for “830121 (AGAATCAAGCCCTGGC; 3-10-3 cEt gapmer, further chemistry not given here) [compound 830121]”?
% inhibition of SMAD7 mRNA expression (compared to control), Distal colon ([1]; distal colon): 21%; % inhibition of SMAD7 mRNA expression (compared to control), Duodenum ([1]; duodenum): 55%; % inhibition of SMAD7 mRNA expression (compared to control), Ileum ([1]; ileum): 0%; % inhibition of Smad7 mRNA expression (compared to control), Kidney ([1]; kidney): 39%; % inhibition of Smad7 mRNA expression (compared to control), Liver ([1]; liver): 0%; % inhibition of SMAD7 mRNA expression (compared to control), Proximal colon ([1]; proximal colon): 20%; Levels of IL-6 ([2]; 0.0128 μM oligonucleotide): 4.1 pg/mL; Levels of IL-10 ([2]; 0.0128 μM oligonucleotide): 2.0 pg/mL; Levels of MCP-1 ([2]; 0.0128 μM oligonucleotide): 324.5 pg/mL; Levels of TNF-α ([2]; 0.0128 μM oligonucleotide): 3.0 pg/mL; Levels of IL-6 ([2]; 0.064 μM oligonucleotide): 4.9 pg/mL; Levels of IL-10 ([2]; 0.064 μM oligonucleotide): 1.3 pg/mL; Levels of MCP-1 ([2]; 0.064 μM oligonucleotide): 370.4 pg/mL; Levels of TNF-α ([2]; 0.064 μM oligonucleotide): 3.5 pg/mL; Levels of IL-6 ([2]; 0.32 μM oligonucleotide): 4.4 pg/mL; Levels of IL-10 ([2]; 0.32 μM oligonucleotide): 1.3 pg/mL; Levels of MCP-1 ([2]; 0.32 μM oligonucleotide): 336.4 pg/mL; Levels of TNF-α ([2]; 0.32 μM oligonucleotide): 3.1 pg/mL; Levels of IL-6 ([2]; 1.6 μM oligonucleotide): 5.4 pg/mL; Levels of IL-10 ([2]; 1.6 μM oligonucleotide): 3.1 pg/mL; Levels of MCP-1 ([2]; 1.6 μM oligonucleotide): 501.8 pg/mL; Levels of TNF-α ([2]; 1.6 μM oligonucleotide): 3.6 pg/mL; Levels of IL-6 ([2]; 8 μM oligonucleotide): 7.5 pg/mL; Levels of IL-10 ([2]; 8 μM oligonucleotide): 3.7 pg/mL; Levels of MCP-1 ([2]; 8 μM oligonucleotide): 717.1 pg/mL; Levels of TNF-α ([2]; 8 μM oligonucleotide): 4.8 pg/mL; Levels of IL-6 ([2]; 40 μM oligonucleotide): 14.3 pg/mL; Levels of IL-10 ([2]; 40 μM oligonucleotide): 2.2 pg/mL; Levels of MCP-1 ([2]; 40 μM oligonucleotide): 1225.2 pg/mL; Levels of TNF-α ([2]; 40 μM oligonucleotide): 9.4 pg/mL; Levels of IL-6 ([2]; 200 μM oligonucleotide): 35.2 pg/mL; Levels of IL-10 ([2]; 200 μM oligonucleotide): 1.4 pg/mL; Levels of MCP-1 ([2]; 200 μM oligonucleotide): 411.0 pg/mL; Levels of TNF-α ([2]; 200 μM oligonucleotide): 14.2 pg/mL; Basophils [3]: 0.8%; Eosinophils [3]: 2.5%; Hematocrit [3]: 56%; Hemoglobin [3]: 18.5 g/dL; Lymphocytes [3]: 30%; MCH [3]: 21.7 pg; MCHC [3]: 32.9 g/dL; MCV [3]: 66 fL; Monocytes [3]: 7.7%; Neutrophils [3]: 59%; PLT [3]: 249 ^3/μL; RBC [3]: 8.5 ^6/L; Reticulocytes [3]: 0.5%; WBC [3]: 8.2 ^3/μL; ALT [4]: 1454 IU/L; AST [4]: 383 IU/L; Albumin [4]: 3.0 g/dL; BUN [4]: 20.0 mg/dL; Bilirubin [4]: 2.6 mg/dL; Creatine [4]: 0.9 mg/dL; Basophils [5]: 0.01 10^3/μL; Eosinophils [5]: 0.08 10^3/μL; Hematocrit [5]: 51.8%; Hemoglobin [5]: 15.1 g/dL; Lymphocytes [5]: 81.7%; MCH [5]: 15.0 pg; MCHC [5]: 29.1 g/dL; MCV [5]: 51.6 fL; Monocytes [5]: 0.15 10^3/μL; Neutrophils [5]: 11.6%; RBC [5]: 10.0; Reticulocytes [5]: 3.0%; WBC [5]: 4.1 10^3/μL; platelets [5]: 1170 10^3/μL; Body weight [6]: 34 g; Heart weight [6]: 0.17 g; Kidneys weight [6]: 0.61 g; Liver with gallbladder weight [6]: 1.92 g; Spleen weight [6]: 0.10 g; Body weight [7]: 6091 g; Heart weight [7]: 52.6 g; Kidney weight [7]: 40.0 g; Liver weight [7]: 202.0 g; Mesenteric LN weight [7]: 12.2 g; Spleen weight [7]: 27.5 g; Thymus weight [7]: 2.8 g
